Key:
Set-up in all cases: purchased Milipore (Millipore)
[1] = molecular target: T1, Human adrenergic α1B receptor (Homo sapiens, UniProt P35368); assay: Radioligand binding, adrenergic α1B (Protocol Group B); settings: Protocol Group B; for inhibition at 0.3 µM / Percentage inhibition of ligand binding, Adrenergic α1B (0.3 μM): 0.3 μM compound; for inhibition at 0.3 µM: read-out: Percentage inhibition of ligand binding, Adrenergic α1B (0.3 μM)
T1 sequence (P35368 1-520): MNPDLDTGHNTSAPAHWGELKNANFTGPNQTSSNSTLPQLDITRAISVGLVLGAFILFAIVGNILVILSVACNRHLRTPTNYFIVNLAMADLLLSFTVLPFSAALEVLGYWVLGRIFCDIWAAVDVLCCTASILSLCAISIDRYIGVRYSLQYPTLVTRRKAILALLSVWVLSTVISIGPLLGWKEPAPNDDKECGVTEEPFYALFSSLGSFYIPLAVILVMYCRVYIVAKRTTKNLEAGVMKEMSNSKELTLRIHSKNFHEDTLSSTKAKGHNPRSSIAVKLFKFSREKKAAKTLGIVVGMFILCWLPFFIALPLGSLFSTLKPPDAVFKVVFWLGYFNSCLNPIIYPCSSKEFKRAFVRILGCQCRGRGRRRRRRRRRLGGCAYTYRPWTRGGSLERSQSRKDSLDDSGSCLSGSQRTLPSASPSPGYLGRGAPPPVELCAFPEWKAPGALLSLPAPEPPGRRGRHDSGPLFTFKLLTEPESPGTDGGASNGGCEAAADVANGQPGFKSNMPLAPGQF
How it was run: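 Values are percent inhibition of specific [3H]prazosin (0.3 nM) binding or estimated Ki, from filtration counting. Human α1B recombinant membranes, Tris-HCl pH 7.4 buffer with MgCl2 and EDTA, 60 min at 25 °C, 1% DMSO vehicle; 10 μM prazosin defined nonspecific binding.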

[2] = molecular target: T2, Human adrenergic α2A receptor (Homo sapiens, UniProt P08913); assay: Radioligand binding, adrenergic α2A (Protocol Group B); settings: Protocol Group B; for Percentage inhibition of ligand binding, Adrenergic α2A (0.3 μM): 0.3 μM compound
T2 sequence (P08913 1-465): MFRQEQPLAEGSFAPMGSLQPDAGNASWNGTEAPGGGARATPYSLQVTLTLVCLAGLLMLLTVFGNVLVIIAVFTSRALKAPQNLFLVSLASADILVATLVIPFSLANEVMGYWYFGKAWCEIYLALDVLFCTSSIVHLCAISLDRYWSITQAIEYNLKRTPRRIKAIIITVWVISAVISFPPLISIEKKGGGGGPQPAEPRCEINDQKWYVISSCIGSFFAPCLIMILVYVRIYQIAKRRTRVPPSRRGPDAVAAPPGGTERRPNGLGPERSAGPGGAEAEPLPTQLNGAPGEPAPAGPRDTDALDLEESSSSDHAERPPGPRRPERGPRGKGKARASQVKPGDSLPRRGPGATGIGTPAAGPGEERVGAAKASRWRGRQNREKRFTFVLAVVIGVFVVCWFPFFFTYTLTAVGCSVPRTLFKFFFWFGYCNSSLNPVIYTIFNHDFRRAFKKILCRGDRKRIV
How it was run: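 Compounds (1% DMSO vehicle, various concentrations) competed against 2 nM [^3H]MK-912 on recombinant receptor membranes for 60 min at 25° C, Tris-HCl pH 7.4 buffer with Mg2+, Ca2+, BSA. Bound radioligand filtered and counted; 10 μM rauwolscine set nonspecific binding. Values: percent inhibition of specific binding or estimated Ki.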

[3] = molecular target: T3, Human adrenergic α2B receptor (Homo sapiens, UniProt P18089); assay: Radioligand binding, adrenergic α2B (Protocol Group B); settings: Protocol Group B; for Percentage inhibition of ligand binding, Adrenergic α2B (30 nM) / inhibition at 0.03 µM: 30 nM compound; for Percentage inhibition of ligand binding, Adrenergic α2B (30 nM): 0.03 µM; for Percentage inhibition of ligand binding, Adrenergic α2B (10 nM): 0.01 µM; for inhibition at 0.03 µM: read-out: Percentage inhibition of ligand binding, Adrenergic α2B (30 nM)
T3 sequence (P18089 1-450): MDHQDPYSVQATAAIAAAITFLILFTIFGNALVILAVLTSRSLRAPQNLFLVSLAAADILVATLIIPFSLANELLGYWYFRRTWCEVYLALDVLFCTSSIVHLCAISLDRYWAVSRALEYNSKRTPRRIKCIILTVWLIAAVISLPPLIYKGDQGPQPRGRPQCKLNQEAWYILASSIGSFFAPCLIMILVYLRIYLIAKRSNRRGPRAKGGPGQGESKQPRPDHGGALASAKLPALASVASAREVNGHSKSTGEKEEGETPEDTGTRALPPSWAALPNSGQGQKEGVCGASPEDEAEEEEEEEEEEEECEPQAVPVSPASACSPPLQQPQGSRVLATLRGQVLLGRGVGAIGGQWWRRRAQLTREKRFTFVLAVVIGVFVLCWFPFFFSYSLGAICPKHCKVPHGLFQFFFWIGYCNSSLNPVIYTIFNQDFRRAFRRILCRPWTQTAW
How it was run: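 Compounds at various concentrations in 1% DMSO were tested on recombinant membranes in Tris-HCl pH 7.4 buffer containing MgCl2, CaCl2 and 0.2% BSA.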

Cc1ccc2c(c1)c1c(n2CC(C)(O)c2ccc(F)cc2)CN2CCC1C2 (single isomer, unassigned) [134d]
Percentage inhibition of ligand binding, Adrenergic α1B (0.1 μM) ([1]; 0.1 μM compound): 28%
Percentage inhibition of ligand binding, Adrenergic α2A (0.1 μM) ([2]; 0.1 μM compound): 15%
Percentage inhibition of ligand binding, Adrenergic α2B (30 nM) [3]: 22%

OC(Cn1c2c(c3cc(Cl)cc(F)c31)C1CCCN1CC2)c1ccncc1 (single isomer, unassigned) [135c]
Percentage inhibition of ligand binding, Adrenergic α1B (0.1 μM) ([1]; 0.1 μM compound): 1%
inhibition at 0.3 µM [1]: 12%
Percentage inhibition of ligand binding, Adrenergic α2A (0.1 μM) ([2]; 0.1 μM compound): 12%
Percentage inhibition of ligand binding, Adrenergic α2A (0.3 μM) [2]: 18%
Percentage inhibition of ligand binding, Adrenergic α2B (10 nM) ([3]; 10 nM compound): 4%
inhibition at 0.03 µM [3]: 10%

OC(Cn1c2c(c3cc(Cl)cc(F)c31)C1CCCN1CC2)c1ccncc1 (single isomer, unassigned) [135d]
Percentage inhibition of ligand binding, Adrenergic α1B (0.1 μM) ([1]; 0.1 μM compound): −7%
Percentage inhibition of ligand binding, Adrenergic α1B (0.3 μM) [1]: 9%
Percentage inhibition of ligand binding, Adrenergic α2A (0.1 μM) ([2]; 0.1 μM compound): 0%
Percentage inhibition of ligand binding, Adrenergic α2A (0.3 μM) [2]: 2%
Percentage inhibition of ligand binding, Adrenergic α2B (10 nM) ([3]; 10 nM compound): −1%
Percentage inhibition of ligand binding, Adrenergic α2B (30 nM) [3]: 8%

Cc1cc(F)cc2c3c(n(CC(O)c4ccncc4)c12)CCN1CCCC31 (single isomer, unassigned) [136c]
Percentage inhibition of ligand binding, Adrenergic α1B (0.1 μM) ([1]; 0.1 μM compound): 0%
Percentage inhibition of ligand binding, Adrenergic α2A (0.1 μM) ([2]; 0.1 μM compound): 3%
Percentage inhibition of ligand binding, Adrenergic α2B (30 nM) [3]: 9%

Cc1cc(F)cc2c3c(n(CC(O)c4ccncc4)c12)CCN1CCCC31 (single isomer, unassigned) [136d]
Percentage inhibition of ligand binding, Adrenergic α1B (0.1 μM) ([1]; 0.1 μM compound): −2%
Percentage inhibition of ligand binding, Adrenergic α2A (0.1 μM) ([2]; 0.1 μM compound): −12%
Percentage inhibition of ligand binding, Adrenergic α2B (30 nM) [3]: −8%

Cc1cc(F)c2c(c1)c1c(n2CC(O)c2ccncc2)CCN2CCCC12 (single isomer, unassigned) [137c]
inhibition at 0.1 µM ([1]; 0.1 μM compound, read-out: Percentage inhibition of ligand binding, Adrenergic α1B (0.1 μM)): 12%
inhibition at 0.3 µM [1]: 14%
inhibition at 0.1 µM ([2]; 0.1 μM compound, read-out: Percentage inhibition of ligand binding, Adrenergic α2A (0.1 μM)): 10%
Percentage inhibition of ligand binding, Adrenergic α2A (0.3 μM) [2]: 2%
inhibition at 0.01 µM ([3]; 10 nM compound, read-out: Percentage inhibition of ligand binding, Adrenergic α2B (10 nM)): 14%
Percentage inhibition of ligand binding, Adrenergic α2B (30 nM) [3]: 10%

Cc1cc(F)c2c(c1)c1c(n2CC(O)c2ccncc2)CCN2CCCC12 (single isomer, unassigned) [137d]
Percentage inhibition of ligand binding, Adrenergic α1B (0.1 μM) ([1]; 0.1 μM compound): 19%
Percentage inhibition of ligand binding, Adrenergic α1B (0.3 μM) [1]: 18%
Percentage inhibition of ligand binding, Adrenergic α2A (0.1 μM) ([2]; 0.1 μM compound): 15%
Percentage inhibition of ligand binding, Adrenergic α2A (0.3 μM) [2]: 16%
Percentage inhibition of ligand binding, Adrenergic α2B (10 nM) ([3]; 10 nM compound): 21%
Percentage inhibition of ligand binding, Adrenergic α2B (30 nM) [3]: 24%

Cc1ccc2c(c1)c1c(n2CC(OCC2CCC2)c2ccncc2)CCN2CCCC12 (single isomer, unassigned) [138c]
Percentage inhibition of ligand binding, Adrenergic α1B (0.1 μM) ([1]; 0.1 μM compound): 4%
Percentage inhibition of ligand binding, Adrenergic α2A (0.1 μM) ([2]; 0.1 μM compound): 0%
Percentage inhibition of ligand binding, Adrenergic α2B (30 nM) [3]: −9%

Cc1ccc2c(c1)c1c(n2CC(OCC2CCC2)c2ccncc2)CCN2CCCC12 (single isomer, unassigned) [138d]
Percentage inhibition of ligand binding, Adrenergic α1B (0.1 μM) ([1]; 0.1 μM compound): 0%
Percentage inhibition of ligand binding, Adrenergic α2A (0.1 μM) ([2]; 0.1 μM compound): 4%
Percentage inhibition of ligand binding, Adrenergic α2B (30 nM) [3]: 11%

CN1CCc2c(c3cc(CCO)ccc3n2CC(C)(O)c2cccnc2)C1 (single isomer, unassigned) [139a]
Percentage inhibition of ligand binding, Adrenergic α1B (0.1 μM) ([1]; 0.1 μM compound): 9%
Percentage inhibition of ligand binding, Adrenergic α2A (0.1 μM) ([2]; 0.1 μM compound): 7%
Percentage inhibition of ligand binding, Adrenergic α2B (30 nM) [3]: 31%

CN1CCc2c(c3cc(CCO)ccc3n2CC(C)(O)c2cccnc2)C1 (single isomer, unassigned) [139b]
Percentage inhibition of ligand binding, Adrenergic α1B (0.1 μM) ([1]; 0.1 μM compound): 1%
Percentage inhibition of ligand binding, Adrenergic α2A (0.1 μM) ([2]; 0.1 μM compound): 0%
Percentage inhibition of ligand binding, Adrenergic α2B (30 nM) [3]: 3%

CN1CCc2c(c3cc(CCO)ccc3n2CC(O)c2ccncc2)C1 (single isomer, unassigned) [140a]
Percentage inhibition of ligand binding, Adrenergic α1B (0.1 μM) ([1]; 0.1 μM compound): −9%
Percentage inhibition of ligand binding, Adrenergic α2A (0.1 μM) ([2]; 0.1 μM compound): −5%
Percentage inhibition of ligand binding, Adrenergic α2B (30 nM) [3]: −12%

CN1CCc2c(c3cc(CCO)ccc3n2CC(O)c2ccncc2)C1 (single isomer, unassigned) [140b]
Percentage inhibition of ligand binding, Adrenergic α1B (0.1 μM) ([1]; 0.1 μM compound): −4%
Percentage inhibition of ligand binding, Adrenergic α2A (0.1 μM) ([2]; 0.1 μM compound): −11%
Percentage inhibition of ligand binding, Adrenergic α2B (30 nM) [3]: 56%

Cc1cc(Cl)c2c(c1)c1c(n2CC(O)c2ccncc2)CCN2CCCC12 (single isomer, unassigned) [142a]
Percentage inhibition of ligand binding, Adrenergic α1B (0.1 μM) ([1]; 0.1 μM compound): 46%
Percentage inhibition of ligand binding, Adrenergic α2A (0.1 μM) ([2]; 0.1 μM compound): 52%
inhibition at 0.03 µM [3]: 92%

Cc1cc(Cl)c2c(c1)c1c(n2CC(O)c2ccncc2)CCN2CCCC12 (single isomer, unassigned) [142b]
Percentage inhibition of ligand binding, Adrenergic α1B (0.1 μM) ([1]; 0.1 μM compound): 76%
Percentage inhibition of ligand binding, Adrenergic α2A (0.1 μM) ([2]; 0.1 μM compound): 95%
Percentage inhibition of ligand binding, Adrenergic α2B (30 nM) [3]: 100%

OC(Cn1c2c(c3cc(Cl)ccc31)C1CCCN1CC2)c1ccncc1 (single isomer, unassigned) [143a]
Percentage inhibition of ligand binding, Adrenergic α1B (0.1 μM) ([1]; 0.1 μM compound): 91%
Percentage inhibition of ligand binding, Adrenergic α2A (0.1 μM) ([2]; 0.1 μM compound): 44%
Percentage inhibition of ligand binding, Adrenergic α2B (30 nM) [3]: 89%

OC(Cn1c2c(c3cc(Cl)ccc31)C1CCCN1CC2)c1ccncc1 (single isomer, unassigned) [143b]
Percentage inhibition of ligand binding, Adrenergic α1B (0.1 μM) ([1]; 0.1 μM compound): 94%
Percentage inhibition of ligand binding, Adrenergic α2A (0.1 μM) ([2]; 0.1 μM compound): 93%
Percentage inhibition of ligand binding, Adrenergic α2B (30 nM) [3]: 100%

OC(Cn1c2c(c3cc(Cl)ccc31)C1CCCN1CC2)c1ccncc1 (single isomer, unassigned) [143c]
Percentage inhibition of ligand binding, Adrenergic α1B (0.1 μM) ([1]; 0.1 μM compound): 9%
Percentage inhibition of ligand binding, Adrenergic α2A (0.1 μM) ([2]; 0.1 μM compound): 1%
Percentage inhibition of ligand binding, Adrenergic α2B (30 nM) [3]: 5%

OC(Cn1c2c(c3cc(Cl)ccc31)C1CCCN1CC2)c1ccncc1 (single isomer, unassigned) [143d]
Percentage inhibition of ligand binding, Adrenergic α1B (0.1 μM) ([1]; 0.1 μM compound): 15%
Percentage inhibition of ligand binding, Adrenergic α2A (0.1 μM) ([2]; 0.1 μM compound): 7%
Percentage inhibition of ligand binding, Adrenergic α2B (30 nM) [3]: 4%
